Experiment [1] has as its system synaptosomal uptake, serotonin. Put plainly: Inhibition of synaptosomal uptake of serotonin. In kind it is biochemical. The following applies: rat cerebral cortex synaptosomes, 50 nM [14C]serotonin, pH 7.4, 37° C. How it is done: (§1) Inhibition of the Synaptosomal Uptake of Monoamines
(§2) Crude synaptosome preparations from rat cerebral cortex were made by homogenizing the tissues in 10 volumes of ice-cold 0.32M sucrose with all-glass Potter'-Elvehjem's homogenizers. The homogenates were centrifuged at 800 g at +2° C. for 10 min. The supernatants were centrifuged at 12000 g at +2° C. for 10 min, and the pellets were rehomogenized in 0.32M sucrose to the original volume. The incubation of the preparations with [^14 C]serotonin plus [^3 H]noradrenaline with final concentrations of 50 nM of each amine was performed in a Micronic PPN Storage-Block-96 (Flow Laboratories) with 8×12 wells using two rows at each incubation. Four to five different concentrations of two test compounds in duplicates were examined at each incubation. Fifty microliters of the synaptosomal preparation, 400 μl of the Krebs-Henseleit's buffer, pH 7.4, containing 5.6 mM glucose, 1.1 mM ascorbic acid, 0.13 mM disodium edetate, and 50 μM pargyline, and 25 μl of the inhibitor or distilled water were added to the wells. The solutions were mixed by vortexing the block for 10 s. After 10-min preincubation at 37° C. in a water bath, 25 μl of the solutions of the radioactively labeled amines was added to the two rows with a Titretec Multicannel Pipette, type 12-Channel (Flow Laboratories). The reaction was immediately started by vortexing the block for 10 s on a Super-Mixer, and the incubation was continued for 2 min at 37° C. The uptake reaction was stopped by filtration and washing for 15 s with ice-cold 0.15M NaCl through a Whatman GF/B glass filter paper in a 24-channel Cell Harvester (Brandel) using the standard harvesting probe. The filters were left to dry in room temperature for about 1 h. The punched filters were transformed to counting vials, 10 mL of the scintillation liquid (Aquasol, NEN) was added, and vials were shaken and allowed to stand for 1 h before counting. The radioactivety was measured in a Packard Tri Carb liquid scintillation photometer. The active uptake of the amines was defined as the difference between the accumulation of the radioactivity in the absence (quadriplicates) and the presence (quadriplicates) of selective uptake inhibitors, determined at each incubation. These inhibitors were citalopram (0.3 μM) for the serotonin uptake and maprotiline (1 μM) for the norepinephrine uptake. The inhibition was calculated in percent of the active uptake. The IC50 values were obtained from log concentration-response curves.

Experiment [2] deals with synaptosomal uptake, noradrenalin. The experiment is described as follows: Inhibition of synaptosomal uptake of noradrenalin. The following applies: rat cerebral cortex synaptosomes, 50 nM [3H]noradrenaline, pH 7.4, 37° C. In kind it is biochemical. How it is done: as §1, §2
The subject of experiment [3] is cholinergic responses (oxotremorine-induced tremor). Put plainly: Potentiation of oxotremorine-induced tremor in rats. In kind it is in vivo, rat (Sprague Dawley). The settings on record: for minimal effective dose: Rattus norvegicus. How it is done: Potentiation of cholinergic responses
Studies on oxotremorine-induced tremor in rats
Male rats (Sprague Dawley Alab Laboratorietjanst AB, Sollentuna, Sweden) weighing 150-180 g, 35-40 days of age, were used. The animals were allowed free access to food (R3, Ewos AB, Sodertalje, Sweden) and water until the start of the experiments. The test compounds were injected intraperitoneally (i.p.) 30 min before injection of oxotremorine into the neck (s.c.). Tremor intensity was assessed visually for a 60 min period following the injection of oxotremorine in rat housed in Macrolon cages (25×25×30 cm) (tree per cage). The treshold dose of oxotremorine for eliciting tremor in rat is 200 μg/kg.
Tremor intensity was scored using the following rating scale: 0=no tremor; 1=slight tremor (moderate, discontinuous tremor); 2=strong tremor (intense, continuous tremor involving the whole body). The animals were scored 5, 10, 15, 30 and 60 min after injection of oxotremorine. The tremor was scored for a period of 30 seconds.
The values for each observation were summed over the entire observation period (5-60 min) and their median values for each group were calculated (total median score). Mann-Whitney U-test (two-tailed) was used to determine differences between the control oxotremorine group and test groups receiving the compounds+oxotremorine. It should be noted that a control group receiving oxotremorine alone was always run concurrently with each compound tested.
The lowest dose causing a significant (p<0.05) potentiation of the oxotremorine response was determined from log-dose response curves.

In experiment [4] the test system is neuronal 5-hydroxytryptamine (5-HT) uptake. The settings on record: U.S. Pat. No. 4 237 311; cited from earlier work.
A further experiment concerns cholinergic responses. The settings on record: U.S. Pat. No. 4 469 707; cited from earlier work.
For another experiment, the system named is central nervous system. The settings on record: man; U.S. Pat. No. 4 237 311; cited from earlier work.
Where [5] appears, read: ip, read-out: Potentiation of OTMN tremor in rat (lowest dose causing a significant potentiation), i.p. 30 min before oxotremorine s.c., p<0.05, scored 5-60 min.
Where [6] appears, read: ip, i.p. 30 min before oxotremorine s.c., p<0.05, scored 5-60 min, read-out: Potentiation of OTMN tremor in rat (lowest dose causing a significant potentiation).
The mark [7] stands for this setting: i.p. 30 min before oxotremorine s.c., p<0.05, scored 5-60 min.

Like-named read-outs stand apart in the source and are kept apart here.

Broadly, the EC50 is the concentration at which the effect is half-maximal. The low end stands for an effect from little substance, the high end for a need for much substance. Take `CC(C)CC(N)C(=O)OC(C)(C)Cc1ccc(Cl)cc1` (centres unmarked) [Example 11, 1-(4-Chlorophenyl)-2-methyl-2-propyl 2-amino-4-methylpentanoate]: the EC50 was 8 µM in experiment [1] and 3.4 µM in experiment [2]. For the same compound, the minimal effective dose in experiment [3] (setting [5]) came out at 10 mg/kg.

For `CC(C)C(N)C(=O)OC(C)(C)Cc1ccc(F)cc1` (centres unmarked) [Example 13, 1-(4-Fluorophenyl)-2-methyl-2-propyl 2-amino-3-methylbutanoate], the concentration for a half-maximal effect (EC50) in experiment [1] came to 10 µM; in experiment [2] it was 2.9 µM. For the same compound, in experiment [3] (setting [6]), the minimal effective dose was found to be 20 mg/kg.

For the compound `CC(C)C(N)C(=O)OC(C)(C)Cc1ccc(Cl)cc1` (single isomer, unassigned) [Example 27, 1-(4-chlorophenyl)-2-methyl-2-propyl 2-amino-3-methyl-butanoate], the results for the EC50 in experiment [1] and in experiment [2] were 3.3 µM and 1.7 µM, respectively. In addition, the “Potentiation of OTMN tremor in rat (lowest dose causing a significant potentiation)” value in experiment [3] (setting [7]) is reported as 10 mg/kg.

As for `C#CCC(N)C(=O)OC(C)(C)Cc1ccc(Cl)cc1` (centres unmarked) [Example 7, 1-(4-Chlorophenyl)-2-methyl-2-propyl 2-amino-4-pentynoate], the EC50 in experiment [1] and in experiment [2] was more than 10 µM in each case. For the same compound, in experiment [3] (setting [6]), the minimal effective dose was determined as 10 mg/kg.

Turning to `CCCC(N)C(=O)OC(C)(C)Cc1ccc(F)cc1` (centres unmarked) [Example 3, 1-(4-fluoropnenyl)-2-methyl-2-propyl 2-aminopentanoate], the figures for the concentration giving a half-maximal response (EC50) in experiment [1] and in experiment [2] were 6 µM and 3.2 µM, respectively. Moreover, the minimal effective dose in experiment [3] (setting [6]) was found to be 10 mg/kg.

With `CCCC(N)C(=O)OC(C)(C)Cc1ccc(Cl)cc1` (centres unmarked) [Example 4, 1-(4-Chlorophenyl)-2-methyl-2-propyl 2-aminopentanoate], the EC50 in experiment [1] amounted to 2.3 µM; in experiment [2], 1.5 µM. Besides, in experiment [3] (setting [6]), the minimal effective dose is 2.5 mg/kg.

For `O=C1CCCN1CC#CCN1CCCC1` [oxotremorine, reference compound], the minimal effective dose in experiment [3] (sc, read-out: threshold dose of oxotremorine for eliciting tremor in rat, s.c., oxotremorine alone) is 0.2 mg/kg.

On to `CC(N)C(=O)OC(C)(C)Cc1ccc(Cl)cc1` (centres unmarked) [Alaproclate, reference compound], for which the EC50 in experiment [1] was 0.12 µM; in experiment [2], more than 10 µM. In addition, the “effect on neuronal 5-HT uptake (in words)” value in experiment [4] was “blocking the neuronal 5-hydroxytryptamine (5-HT) uptake”. The “effect on cholinergic responses (in words)” value in the experiment on cholinergic responses is “potentiating effect on cholinergic responses”. In addition, the “antidepressive activity (in words)” value with central nervous system was “antidepressive activity combined with a reduced frequency of side effects”. The minimal effective dose in experiment [3] (setting [5]) was 5 mg/kg. Also, the “tremor response induced by a threshold dose of oxotremorine (in words)” value in experiment [3] (threshold dose of oxotremorine) is recorded as “enhance the tremor response”.

For the compound “1-(4-Chlorophenyl)-2-methyl-2-propyl SS/RS-2-amino-3-methylpentanoate [Example 15]”, the results for the EC50 in experiment [1] and in experiment [2] were 8 µM and 3.1 µM, respectively. In experiment [3] (setting [7]), the “Potentiation of OTMN tremor in rat (lowest dose causing a significant potentiation)” value is 10 mg/kg.

Regarding `CCC(N)C(=O)OC(C)(C)Cc1ccc(F)cc1` (centres unmarked) [Example 2, 1-(4-fluorophenyl)-2-methyl-2-propyl 2-aminobutanoate], the concentration giving a half-maximal response (EC50) in experiment [1] was 3 µM; in experiment [2] it was 7 µM. Moreover, the minimal effective dose in experiment [3] (setting [5]) is 10 mg/kg.

Consider `CC(C)C(N)C(=O)OC(C)(C)Cc1ccc(Cl)cc1` (single isomer, unassigned; (+)) [Example 26, (+)-1-(4-Chlorophenyl)-2-methyl-2-propyl 2-amino-3-methylbutanoate], for which the figures for the EC50 in experiment [1] and in experiment [2] were 8.7 µM and 1.8 µM, respectively. Also, in experiment [3] (setting [5]), the minimal effective dose worked out at 20 mg/kg.

On to `CCC(N)C(=O)OC(C)(C)Cc1ccc(Cl)cc1` (centres unmarked) [Example 1, 1-(4-Chlorophenyl)-2-methyl-2-propyl 2-aminobutanoate], for which the EC50 in experiment [1] stood at 2.8 µM; in experiment [2], 8 µM. The minimal effective dose in experiment [3] (setting [5]) amounted to 2.5 mg/kg.

As for `C=CCC(N)C(=O)OC(C)(C)Cc1ccc(Cl)cc1` (centres unmarked) [Example 5, 1-(4-Chlorophenyl)-2-methyl-2-propyl 2-amino-4-pentenoate], the 50% effective concentration (EC50) in experiment [1] is 3.6 µM; in experiment [2], 2.5 µM. Further, in experiment [3] (setting [6]), the minimal effective dose came to 20 mg/kg.

For `CC(C)C(N)C(=O)OC(C)(C)Cc1cc(Cl)cc(Cl)c1` (centres unmarked) [Example 14, 1-(3,5-Dichlorophenyl)-2-methyl-2-propyl 2-amino-3-methylbutanoate], the EC50 in experiment [1] was 4 µM; in experiment [2], more than 10 µM. Further, the minimal effective dose in experiment [3] (setting [6]) came to 10 mg/kg.

Turning to `CCC(C)C(N)C(=O)OC(C)(C)Cc1ccc(Cl)cc1` (centres unmarked) [Example 12, 1-(4-Chlorophenyl)-2-methyl-2-propyl 2-amino-3-methylpentanoate], the concentration for a half-maximal effect (EC50) was 6.5 µM in experiment [1] and 3.2 µM in experiment [2]. Moreover, in experiment [3] (setting [5]), the minimal effective dose is 20 mg/kg.

The values above are taken from US4990534A, “Aralkyl esters and processes for their preparation” (priority 1987, dated 1991).
